# Data reported in ChEMBL document CHEMBL1139522, “Methyl pyropheophorbide-a analogues: potential fluorescent probes for the peripheral-type benzodiazepine receptor. Effect of central metal in photosensitizing efficacy” (J Med Chem, 2005).
# Legend:
# [1] = Displacement of [3H]PK11195 from peripheral benzodiazepine receptor
# Mus musculus [2] = species on record: Mus musculus; assay: In vitro photodynamic therapy efficacy (0.06 uM) in RIF tumor cells using MTT assay; expressed as light dose; assay type: functional
# Mus musculus [3] = species on record: Mus musculus; assay: In vitro photodynamic therapy efficacy (1.0 uM) in RIF tumor cells using MTT assay; expressed as light dose; assay type: functional
structure (smiles),measurement,setting,value
C=Cc1c(C)c2[n]3c1=CC1=[N+]4C(=Cc5c(C)c6c7[n]5[Zn-2]34[N+]3=C(C=2)[C@@H](C)[C@H](CCC(=O)OC)C3=C7CC6=O)C(CC)=C1C (stereo partly drawn),IC50,[1],2.89 µM
same,LD50,Mus musculus [2],>2 J/cm2
same,LD50,Mus musculus [3],0.7 J/cm2
CCCCCCOC(C)C1=C(C)c2cc3nc(c4c5[nH]c(cc6[nH]c(cc1n2)c(C)c6CC)c(C)c5C(=O)C4)[C@@H](CCC(=O)OC)[C@@H]3C (stereo partly drawn),IC50,[1],17 µM
same,LD50,Mus musculus [2],0.43 J/cm2
C=Cc1c(C)c2cc3nc(c4c5nc(cc6[nH]c(cc1[nH]2)c(C)c6CC)C(C)=C5C(=O)C4)[C@@H](CCC(=O)NCCCCCCNc1ccc([N+](=O)[O-])c2nonc12)[C@@H]3C,IC50,[1],37.1 µM
same,LD50,Mus musculus [2],>2 J/cm2
same,LD50,Mus musculus [3],>2 J/cm2
C=Cc1c(C)c2cc3nc(c4c5nc(cc6[nH]c(cc1[nH]2)c(C)c6CC)C(C)=C5C(=O)C4)[C@@H](CCC(=O)OC)[C@@H]3C,IC50,[1],1.82 µM
same,LD50,Mus musculus [2],>2 J/cm2
same,LD50,Mus musculus [3],Toxic
O=C(Cc1c[nH]c2ccccc12)NCCCCCCNc1ccc([N+](=O)[O-])c2nonc12,IC50,[1],0.32 µM
CCC(C)N(C)C(=O)c1cc2ccccc2c(-c2ccccc2Cl)n1 (stereo not drawn) [PK-11195],IC50,[1],0.39 µM
